Assay results reported in patent US10781217B2, “Imidazopyridazine compound” (HANMI PHARMACEUTICAL CO., LTD., priority 2017, dated 2020).

Tested on: SK-CO-1 cell line
Test: Cell growth inhibition on SK-CO-1 cell line (SRB assay)
Type: cell-based
Conditions: cultured with compound for 3 days, SRB colorimetric test
Protocol: SK-CO-1 cell line purchased from the American Type Culture Collection (ATCC, USA) was cultured at […] with an EMEM medium (10% FBS, 1% penicillin/streptomycin) under the presence of 5% CO2. The cultured SK-CO-1 cell line was prepared in 5×10^4/100 μl, placed in a 96 well-plate, and cultured for one day. After that, the test compound was stepwise diluted in a ratio of 1/10 from 10 μM to 0.1 nM in the same EMEM medium, and then cultured for 3 days. In order to measure viability of the cell, a sulforhodamine B colorimetric (SRB, sigma Cat. S1402) test method was used. After discarding the medium, 0.1 ml of 10% trichloroacetic acid (TCA, Sigma Cat. T0699) was introduced to each well, and the cell line was fixed for 30 minutes to 1 hour, then washed with distilled water, and exposed in the air to dry the plate. After that, 100 μl of 0.4% SRB solution was introduced to each well, and the cell line was stained for 30 minutes at room temperature, and the plate was washed with distilled water and 1% acetic acid, and then dried in the air. 150 μl of […] trizma base solution was introduced to each well, and after dissolving the solid SRB therein, absorbance was measured at 540 nm using a microplate-reader. The growth inhibition value (GI50) of the cell line was calculated using a GraphPad Prism software.

Substance: 1-(2-(((1^5Z,5Z)-2^5-fluoro-3-aza-1(3,6)-imidazo[1,2-b]pyridazina-2(4,2)pyrimidina-4(1,3)-benzenacyclohexapan-5-en-4^5-yl)oxy)ethyl)piperidin-4-ol [Example 1]
- GI50: 21 nM
